Test system: obese ob/ob mouse (model of obesity-associated insulin resistance)
Experiment: Hypolipaemic activity in the obese ob/ob mouse
Type: in vivo
Description: The products of the invention were tested in vivo in the obese ob/ob mouse, used as a model of obesity-associated insulin resistance.

## CCCN(CCC)c1nc2c(N3CCCCCC3)nc(N3CCOCC3)cc2c(=O)[nH]1 [Example 6, 8-(1-Azepanyl)-2-(dipropylamino)-6-(4-morpholinyl)pyrido[3,4-d]pyrimidin-4(3H)-one]
125 mg/kg per os
  reduction of triglycerides: significantly reduces the triglycerides

## CN(C)C(=N)N=C(N)N [metformin]
250 mg/kg per os
  reduction of triglycerides: the same reduction is obtained
